Assays:
[1] = system: K. pneumoniae A-1797 expressing KPC-2 and VIM-4; assay: Broth microdilution MIC, K. pneumoniae A-1797 KPC-2/VIM-4; format: cell-based; details: fixed 4 μg/mL meropenem; CAMHB, 16-20 hours at 37° C.
In short: (§1)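 Following CLSI broth microdilution, β-lactamase-producing strains grown 3–5 h were exposed in CAMHB to 2-fold dilutions of test compound (32 to 0.25 μg/mL final). A static 4 μg/mL β-lactam overlay was added. After 16–20 h at 37° C, MIC was scored by eye.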

[2] = system: S. aureus MSSA-7 producing penicillinase PC-1; assay: Broth microdilution MIC, S. aureus MSSA-7 PC-1; format: cell-based; details: fixed 4 μg/mL piperacillin; CAMHB, 16-20 hours at 37° C.
In short: as §1

[3] = system: E. coli ESBL4 expressing CTX-M-15; assay: Broth microdilution MIC, E. coli ESBL4 CTX-M-15; format: cell-based; details: fixed 4 μg/mL ceftazidime; CAMHB, 16-20 hours at 37° C.
In short: as §1

[4] = target: T1, p99 AmpC β-lactamase (Class C) (Enterobacter cloacae, UniProt P05364); assay: β-Lactamase inhibition, p99 AmpC; format: biochemical
T1 construct: made in house; host or cells: E. coli BL21(DE3)

[5] = target: T2, OXA-1 β-lactamase (Class D oxacillinase) (Escherichia coli, UniProt P13661); assay: β-Lactamase inhibition, OXA-1; format: biochemical; details: nitrocefin 100 μM, 486 nm; 15 min preincubation at 37° C., PBS pH 7.4
T2 construct: made in house; host or cells: E. coli BL21(DE3)
In short: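 Compounds are mixed with purified, untagged recombinant β-lactamase and held 15 min at 37 °C. Substrate is then added: nitrocefin (100 μM final) for OXA-1, imipenem for KPC-2, cefotaxime for SHV-5. Absorbance is followed immediately, and percent inhibition per concentration gives the IC50.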

[6] = system: E. cloacae 144200 expressing Class C P99 AmpC; assay: Broth microdilution MIC, E. cloacae 144200 p99 AmpC; format: cell-based; details: fixed 4 μg/mL ceftazidime; CAMHB, 16-20 hours at 37° C.
In short: as §1

[7] = target: T3, SHV-5 β-lactamase (Class A ESBL) (Klebsiella pneumoniae, UniProt P0A3M1); assay: β-Lactamase inhibition, SHV-5; format: biochemical
T3 construct: made in house; host or cells: E. coli BL21(DE3)
In short: (§2)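 IC50 is the inhibitor level cutting initial substrate hydrolysis rate by 50% relative to no-inhibitor controls, after 15 min enzyme–inhibitor preincubation at 37 °C. KPC-2 read with imipenem at 300 nm, SHV-5 with cefotaxime at 260 nm; enzymes were untagged, E. coli-expressed, chromatographically purified.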

[8] = system: K. pneumoniae 156319 expressing KPC-3; assay: Broth microdilution MIC, K. pneumoniae 156319 KPC-3; format: cell-based; details: fixed 4 μg/mL meropenem; CAMHB, 16-20 hours at 37° C.
In short: as §1

[9] = target: T4, VIM-2 metallo-β-lactamase (Class B) (Pseudomonas aeruginosa, UniProt Q9K2N0); assay: β-Lactamase inhibition, VIM-2; format: biochemical; details: nitrocefin 100 μM, 486 nm; 15 min preincubation at 37° C., PBS pH 7.4
T4 construct: made in house; host or cells: E. coli BL21(DE3)
In short: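 Nitrocefin hydrolysis (100 μM final, A486 read for 10 min) by purified VIM-2 after a 15-min, 37° C enzyme–inhibitor preincubation. IC50 is the concentration halving initial hydrolysis rate, derived from percent inhibition against no-inhibitor wells.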

[10] = system: P. aeruginosa Ps296 expressing VIM-2; assay: Broth microdilution MIC, P. aeruginosa Ps296 VIM-2; format: cell-based; details: fixed 4 μg/mL meropenem; CAMHB, 16-20 hours at 37° C.
In short: as §1

[11] = target: T5, KPC-2 β-lactamase (Class A carbapenemase) (Klebsiella pneumoniae, UniProt Q9F663); assay: β-Lactamase inhibition, KPC-2; format: biochemical; details: imipenem substrate, 300 nm; 15 min preincubation at 37° C., PBS pH 7.4
T5 construct: made in house; host or cells: E. coli BL21(DE3)
In short: as §2

T5 sequence (Q9F663 25-293, looked up): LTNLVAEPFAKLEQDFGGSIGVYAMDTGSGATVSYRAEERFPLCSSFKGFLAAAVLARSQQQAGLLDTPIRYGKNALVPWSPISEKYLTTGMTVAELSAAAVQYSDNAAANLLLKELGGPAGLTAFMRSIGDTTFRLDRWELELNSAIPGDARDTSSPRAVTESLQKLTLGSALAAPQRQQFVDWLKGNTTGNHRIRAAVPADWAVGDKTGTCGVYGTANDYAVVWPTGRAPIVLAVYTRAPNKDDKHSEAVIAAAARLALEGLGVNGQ
T2 sequence (P13661 26-276): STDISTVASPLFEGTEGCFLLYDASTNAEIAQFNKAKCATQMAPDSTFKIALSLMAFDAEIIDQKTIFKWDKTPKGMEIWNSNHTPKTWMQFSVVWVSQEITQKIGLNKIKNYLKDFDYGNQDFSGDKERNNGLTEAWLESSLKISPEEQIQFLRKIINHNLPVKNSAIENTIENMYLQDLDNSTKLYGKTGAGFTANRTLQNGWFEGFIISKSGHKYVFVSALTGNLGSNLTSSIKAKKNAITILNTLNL
T3 sequence (P0A3M1 22-286): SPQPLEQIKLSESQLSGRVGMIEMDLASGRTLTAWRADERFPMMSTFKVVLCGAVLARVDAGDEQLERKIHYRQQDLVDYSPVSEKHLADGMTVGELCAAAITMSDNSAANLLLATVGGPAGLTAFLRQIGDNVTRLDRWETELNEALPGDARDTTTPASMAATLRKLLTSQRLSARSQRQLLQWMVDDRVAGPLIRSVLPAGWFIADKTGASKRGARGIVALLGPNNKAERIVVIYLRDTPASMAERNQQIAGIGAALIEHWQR
T1 sequence (P05364 21-381): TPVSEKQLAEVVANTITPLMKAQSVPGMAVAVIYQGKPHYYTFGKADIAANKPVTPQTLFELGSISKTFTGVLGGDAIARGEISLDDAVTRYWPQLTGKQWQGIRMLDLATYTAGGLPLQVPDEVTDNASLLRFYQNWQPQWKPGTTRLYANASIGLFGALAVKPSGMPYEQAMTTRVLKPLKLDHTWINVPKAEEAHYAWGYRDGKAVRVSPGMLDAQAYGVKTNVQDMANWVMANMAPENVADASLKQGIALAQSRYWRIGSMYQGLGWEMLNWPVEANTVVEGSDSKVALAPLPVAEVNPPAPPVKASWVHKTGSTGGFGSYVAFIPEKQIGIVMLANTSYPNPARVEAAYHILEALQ

| Structure (SMILES) | MIC of example compound in presence of fixed β-lactam: Fixed Mero, K. P. A-1797 KPC-2 VIM-4 [1] | MIC of example compound in presence of fixed β-lactam: Fixed Pip, S. aureus MSSA-7 PC-1 [2] | MIC of example compound in presence of fixed β-lactam: Fixed CAZ, E. coli ESBL4 CTX-M-15 [3] | IC50 [4] | IC50 [5] | MIC of example compound in presence of fixed β-lactam: Fixed CAZ, E. cl. 144200 p99 AmpC [6] | IC50 [7] | MIC of example compound in presence of fixed β-lactam: Fixed Mero, K. P. 156319 KPC-3 [8] | IC50 [9] | MIC of example compound in presence of fixed β-lactam: Fixed Mero, P. aerug. Ps296 VIM-2 [10] | IC50 [11] |
| --- | --- | --- | --- | --- | --- | --- | --- | --- | --- | --- | --- |
| O=C(CN1CCN(c2nccs2)CC1)N[C@H]1Cc2cccc(C(=O)O)c2OB1O [Example 15, 2-Hydroxy-3-[2-(4-thiazol-2-yl-piperazin-1-yl)-acetylamino]-3,4-dihydro-2H-benzo[e][1,2]oxaborinine-8-carboxylic acid] | B (the MIC in the presence of between 8 and 32 μg/mL of a β-lactamase inhibitor) | C (the MIC in the presence of <4 μg/mL of a β-lactamase inhibitor) | C (the MIC in the presence of <4 μg/mL of a β-lactamase inhibitor) | < 100 nM | 100 to 1000 nM | C (the MIC in the presence of <4 μg/mL of a β-lactamase inhibitor) | 100 to 1000 nM | C (the MIC in the presence of <4 μg/mL of a β-lactamase inhibitor) | 1000 to 10000 nM | C (the MIC in the presence of <4 μg/mL of a β-lactamase inhibitor) | 1000 to 10000 nM |
| O=C(COC1CCNCC1)N[C@H]1Cc2cccc(C(=O)O)c2OB1O [Example 39, 2-Hydroxy-3-[2-(piperidin-4-yloxy)-acetylamino]-3,4-dihydro-2H-benzo[e][1,2]oxaborinine-8-carboxylic acid] | B (the MIC in the presence of between 8 and 32 μg/mL of a β-lactamase inhibitor) | C (the MIC in the presence of <4 μg/mL of a β-lactamase inhibitor) | C (the MIC in the presence of <4 μg/mL of a β-lactamase inhibitor) | < 100 nM | < 100 nM | C (the MIC in the presence of <4 μg/mL of a β-lactamase inhibitor) | 100 to 1000 nM | C (the MIC in the presence of <4 μg/mL of a β-lactamase inhibitor) | 100 to 1000 nM | C (the MIC in the presence of <4 μg/mL of a β-lactamase inhibitor) | < 100 nM |
| O=C(CC1CCNCC1)N[C@H]1Cc2cccc(C(=O)O)c2OB1O [Example 32, 2-Hydroxy-3-(2-piperidin-4-yl-acetylamino)-3,4-dihydro-2H-benzo[e][1,2]oxaborinine-8-carboxylic acid] | A (an MIC of the fixed β-lactam antibiotic in the presence of >32 μg/mL of a β-lactamase inhibitor) | C (the MIC in the presence of <4 μg/mL of a β-lactamase inhibitor) | C (the MIC in the presence of <4 μg/mL of a β-lactamase inhibitor) | < 100 nM | 100 to 1000 nM | C (the MIC in the presence of <4 μg/mL of a β-lactamase inhibitor) | 10000 to 100000 nM | A (an MIC of the fixed β-lactam antibiotic in the presence of >32 μg/mL of a β-lactamase inhibitor) | 10000 to 100000 nM | A (an MIC of the fixed β-lactam antibiotic in the presence of >32 μg/mL of a β-lactamase inhibitor) | 100 to 1000 nM |
| O=C(CN[C@@H]1CCNC1)N[C@H]1Cc2cccc(C(=O)O)c2OB1O [Example 9, 2-Hydroxy-3-[2-(pyrrolidin-3-ylamino)-acetylamino]-3,4-dihydro-2H-benzo[e][1,2]oxaborinine-8-carboxylic acid] | A (an MIC of the fixed β-lactam antibiotic in the presence of >32 μg/mL of a β-lactamase inhibitor) | C (the MIC in the presence of <4 μg/mL of a β-lactamase inhibitor) | C (the MIC in the presence of <4 μg/mL of a β-lactamase inhibitor) | < 100 nM | < 100 nM | C (the MIC in the presence of <4 μg/mL of a β-lactamase inhibitor) | < 100 nM | C (the MIC in the presence of <4 μg/mL of a β-lactamase inhibitor) | 10000 to 100000 nM | A (an MIC of the fixed β-lactam antibiotic in the presence of >32 μg/mL of a β-lactamase inhibitor) | < 100 nM |

— patent US10294248B2, “Beta-lactamase inhibitors” (VenatoRx Pharmaceuticals, Inc., priority 2013, dated 2019)
